According to publication PMC9323974, “Palladium(II) Complexes of Substituted Salicylaldehydes: Synthesis, Characterization and Investigation of Their Biological Profile” (Pharmaceuticals, 2022):
Like-named read-outs stand apart in the source and are kept apart here.

Tests used:
[1] = Reduction of hydrogen peroxide; details: compound 0.1 mM
Description: S1 Antioxidant biological assay
The antioxidant activity of the compounds was evaluated via their ability to scavenge in […]
vitro free radicals such as DPPH and ABTS and to reduce H2O2. […]
S1.3 Reduction of hydrogen peroxide
The ability of the compounds to reduce hydrogen peroxide (H2O2) was estimated according […]
to the method described in the literature [S2]. The reaction mixture contained 20 μL of each of the […]
tested compounds (0.1 mM) and 5 μL H 2O2 solution (40 mM) in phosphate buffer (50 mM, pH 7.4).
The absorbance was measured at 230 nm after 10 min. The antioxidant activity (reduction of […]

HSA = target: T1, HSA (Homo sapiens, UniProt P02768); assay: HSA fluorescence quenching; type: binding; details: for ΔΙ/Ιο (%) HSA fluorescence quenching: HSA 3 μM; for K HSA-binding constant: Scatchard; for relative HSA-fluorescence emission intensity, % of the initial: final value
T1 construct: purchased Sigma-Aldrich Co
Description: S4 Interaction with serum albumins
S4.1 Study of the affinity for serum albumins
The albumin–binding study for the compounds was carried out by fluorescence emission quenching experiments using BSA (3 μM) or HSA (3 μM) in buffer solution (15 mM trisodium citrate and 150 mM NaCl at pH 7.0). The tested compounds were used as quenchers with gradually increasing concentrations to monitor the quenching of the emission intensity of tryptophan residues of BSA at 345 nm or HSA at 340 nm [S6]. The fluorescence emission spectra were recorded between 300–500 nm with excitation wavelength of 295 nm. All the experiments were conducted at room temperature. The fluorescence spectra of the compounds were recorded under the same experimental conditions and presented a low–intensity emission band in the region 395–415 nm.
Consequently, the SA fluorescence emission spectra were modified properly, by subtracting the spectra of the compounds, and quantitative studies followed.
The extent of the inner–filter effect can be roughly estimated with the following formula: […]
where Icorr= corrected intensity, Imeas= the measured intensity, c = the concentration of the quencher, d = the cuvette length (1 cm), ε(λexc) and ε(λem) = the ε of the quencher at the excitation and the emission wavelength, respectively, as calculated from the UV –vis spectra of the complexes [S 8].
The interaction of the quencher (i.e. compounds) with serum albumins [S6] was studied through the Stern–Volmer and Scatchard equations [S6] and corresponding graphs. The values of the respective Stern–Volmer constant KSV (M–1), the quenching constant k q (M–1s–1), the SA– binding constant K (M–1) and the number of binding sites per albumin (n) were calculated.
According to Stern–Volmer quenching equation [S6] (eq. S2), where I 0 = the initial tryptophan fluorescence intensity of SA, I = the tryptophan fluorescence intensity of SA after the addition of the quencher, kq = the quenching rate constants of SA, K SV = the dynamic quenching constant, τ0 = the average lifetime of SA without the quencher, [Q] = the concentration of the quencher), the Stern –Volmer constant (KSV, M–1) can be obtained by the slope of the diagram I0/I versus [Q]. Taking τ0 = 10–8 s as fluorescence lifetime of tryptophan in SA [S2], the quenching constant (kq, M–1s–1) is calculated from equation S3.
From the Scatchard equation (eq. S5) [S6]: […]
(1 picture or pasted object on this page, not shown here) […]
where n = the number of binding sites per albumin and K = the SA–binding constant. The K constant (M−1) is calculated from the slope in plots (ΔI/I0)/[Q] versus (ΔI/I0) and n is given by the ratio of y intercept to the slope [S9]. […]

BSA = target: T2, BSA (Bos taurus, UniProt P02769); assay: Competitive BSA-fluorescence studies with warfarin and ibuprofen; type: binding, bovine; details: for BSA drug site preference: drug site I (warfarin) vs II (ibuprofen)
T2 construct: purchased Sigma-Aldrich Co
Description: where n = the number of binding sites per albumin and K = the SA–binding constant. The K constant (M−1) is calculated from the slope in plots (ΔI/I0)/[Q] versus (ΔI/I0) and n is given by the ratio of y intercept to the slope [S9].
S4.2 Competitive SA–fluorescence studies with warfarin and ibuprofen
The competitive studies with warfarin or ibuprofen (site probes) [S10] were performed by tryptophan fluorescence quenching experiments using a fixed concentration of the BSA and site probes (3 μM) in buffer (containing 15 mM trisodium citrate and 150 mM NaCl at pH 7.0). The fluorescence emission spectra were recorded in the presence of increasing amounts of the compounds as quenchers with an excitation wavelength of 295 nm. The Scatchard equation (eq. 7) [S6] and plots were applied on the corrected SA–fluorescence emission spectra in order to determine the BSA–binding constant of the compounds in the presence of warfarin or ibuprofen.

[2] = read-out: BSA-binding constant K, Marker: Ibuprofen, ibuprofen 3 μM
[3] = read-out: BSA-binding constant K, Marker: Warfarin, warfarin 3 μM

T1 sequence (P02768 25-609): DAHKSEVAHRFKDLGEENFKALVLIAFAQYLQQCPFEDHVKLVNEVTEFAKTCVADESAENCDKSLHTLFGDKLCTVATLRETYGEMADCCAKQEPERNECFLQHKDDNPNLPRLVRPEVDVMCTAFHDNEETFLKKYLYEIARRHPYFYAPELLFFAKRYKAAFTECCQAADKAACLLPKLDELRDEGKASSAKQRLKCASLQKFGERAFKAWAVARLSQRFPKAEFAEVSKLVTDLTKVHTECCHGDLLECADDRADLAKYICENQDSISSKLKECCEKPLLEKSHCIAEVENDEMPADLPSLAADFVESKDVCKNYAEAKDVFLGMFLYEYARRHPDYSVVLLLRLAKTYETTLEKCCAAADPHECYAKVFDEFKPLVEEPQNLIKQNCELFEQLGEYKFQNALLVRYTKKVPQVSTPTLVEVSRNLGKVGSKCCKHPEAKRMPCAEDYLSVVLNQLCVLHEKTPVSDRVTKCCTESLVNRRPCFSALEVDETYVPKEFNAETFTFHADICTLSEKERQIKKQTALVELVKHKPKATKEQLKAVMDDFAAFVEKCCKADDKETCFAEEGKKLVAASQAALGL
T2 sequence (P02769 25-607): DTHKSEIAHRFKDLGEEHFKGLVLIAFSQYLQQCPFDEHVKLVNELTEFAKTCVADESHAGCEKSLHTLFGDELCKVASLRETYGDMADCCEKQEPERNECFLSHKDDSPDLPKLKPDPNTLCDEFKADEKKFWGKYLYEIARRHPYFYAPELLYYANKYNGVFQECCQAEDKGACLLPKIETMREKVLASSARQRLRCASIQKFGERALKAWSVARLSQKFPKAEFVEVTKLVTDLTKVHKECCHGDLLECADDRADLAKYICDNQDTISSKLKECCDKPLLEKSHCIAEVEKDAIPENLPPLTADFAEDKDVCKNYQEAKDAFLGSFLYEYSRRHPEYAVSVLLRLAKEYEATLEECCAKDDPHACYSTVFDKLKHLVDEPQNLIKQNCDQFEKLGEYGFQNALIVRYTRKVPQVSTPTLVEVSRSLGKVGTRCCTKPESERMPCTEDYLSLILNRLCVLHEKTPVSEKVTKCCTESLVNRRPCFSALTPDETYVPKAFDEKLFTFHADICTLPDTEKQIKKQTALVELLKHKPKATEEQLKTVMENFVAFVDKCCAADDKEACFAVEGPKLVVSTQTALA

Row | SMILES | H2O2% [1] [%] | Kd (HSA) [µM] | kq HSA-quenching constant (HSA) | Kd (BSA) [µM] | Kd (BSA; [2]) [µM] | Kd (BSA; [3]) [µM] | ΔΙ/Ιο (%) HSA fluorescence quenching (HSA) [%] | K HSA-binding constant (HSA) | relative HSA-fluorescence emission intensity, % of the initial (HSA) [%] | BSA-binding constant K, Marker: Ibuprofen (BSA; ibuprofen 3 μM) | BSA-binding constant K, No Marker (BSA) | BSA-binding constant K, Marker: Warfarin (BSA; warfarin 3 μM) | BSA drug site preference (BSA)
1 | CCN(CC)c1ccc(C=O)c(O)c1 [4-Et2N-saloH, 4-diethylamino-salicylaldehyde, reference compound] | 76.57 ± 0.71 | 2.48 | 2.10 (±0.22) × 10^13 M^−1 s^−1 | 2.4 | 20.6 | 7.52 | – | – | – | – | – | – | –
2 | COc1ccc(C=O)c(O)c1 [4-OMe-saloH, 4-methoxy-salicylaldehyde, reference compound] | 94.24 ± 0.67 | 10.3 | 2.28 (±0.13) × 10^12 M^−1 s^−1 | 2.43 | 12.7 | 68.5 | – | – | – | – | – | – | –
3 | O=Cc1cc(F)ccc1O [5-F-saloH, 5-fluoro-salicylaldehyde, reference compound] | 71.84 ± 0.95 | 21.5 | 1.96 (±0.07) × 10^12 M^−1 s^−1 | 23.2 | 21.7 | 33.1 | – | – | – | – | – | – | –
4 | CCN(CC)c1ccc(C=O)c([O][Pd][O]c2cc(N(CC)CC)ccc2C=O)c1 [Complex 1, [Pd(4-Et2N-salo)2]] | 18.19 ± 0.29 | – | 3.48 (±0.14) × 10^13 M^−1 s^−1 | – | – | – | 91.8 | 1.25 (±0.06) × 10^5 M^−1 | 8.2 | 8.94 (±0.63) × 10^4 M^−1 | 1.08 (±0.06) × 10^5 M^−1 | 9.34 (±0.60) × 10^4 M^−1 | –
5 | O=Cc1cc(Br)cc(Br)c1[O][Pd][O]c1c(Br)cc(Br)cc1C=O [Complex 2, [Pd(3,5-diBr-salo)2]] | 49.21 ± 0.32 | – | 4.22 (±0.13) × 10^13 M^−1 s^−1 | – | – | – | 88.8 | 4.12 (±0.15) × 10^5 M^−1 | 11.2 | 1.05 (±0.09) × 10^5 M^−1 | 1.50 (±0.06) × 10^6 M^−1 | 9.64 (±0.70) × 10^4 M^−1 | –
6 | O=Cc1cc(Cl)cc(Cl)c1[O-].O=Cc1cc(Cl)cc(Cl)c1[O-].[Pd+2] [Complex 3, [Pd(3,5-diCl-salo)2]] | 51.26 ± 0.70 | – | 5.00 (±0.12) × 10^13 M^−1 s^−1 | – | – | – | 90.4 | 4.10 (±0.17) × 10^5 M^−1 | 9.6 | 2.89 (±0.10) × 10^5 M^−1 | 7.82 (±0.24) × 10^5 M^−1 | 3.26 (±0.34) × 10^5 M^−1 | –
7 | O=Cc1cc(F)ccc1[O-].O=Cc1cc(F)ccc1[O-].[Pd+2] [Complex 4, [Pd(5-F-salo)2]] | 48.31 ± 0.67 | – | 1.82 (±0.06) × 10^13 M^−1 s^−1 | – | – | – | 75.7 | 1.38 (±0.05) × 10^5 M^−1 | 24.3 | 9.27 (±0.48) × 10^4 M^−1 | 8.79 (±0.13) × 10^4 M^−1 | 6.05 (±0.27) × 10^4 M^−1 | drug site I
8 | COc1ccc(C=O)c([O-])c1.COc1ccc(C=O)c([O-])c1.[Pd+2] [Complex 5, [Pd(4-OMe-salo)2]] | 58.38 ± 0.54 | – | 6.69 (±0.23) × 10^13 M^−1 s^−1 | – | – | – | 92.2 | 3.56 (±0.12) × 10^5 M^−1 | 7.8 | 6.52 (±0.46) × 10^4 M^−1 | 9.18 (±0.27) × 10^5 M^−1 | 1.46 (±0.14) × 10^5 M^−1 | drug site II
